Patent publication US7422846B2, “Natural ligand for orphan G protein coupled receptor GPR86 and methods of use” (Euroscreen S.A, priority 2001, dated 2008)

Tests used:
CHO-K1 control cells = assay: Erk phosphorylation in CHO-K1 control cells transfected with empty pEFIN5 vector; assay type: cell-based; settings: 1 μM; 5 min, 20 min or 1 h
[1] = target: T1, GPR86 (P2Y13) human receptor (Homo sapiens, UniProt Q9BPV8, T179M); assay: cAMP accumulation in CHO-K1 cells expressing GPR86 in the presence of forskolin; assay type: cell-based; parameters: expressed in transfected cells; host or cells: 1321N1 astrocytoma clone AG32 (stably expressing Gα16 from pERAEQ2), G418-selected; settings: forskolin 4 μM
T1 sequence (Q9BPV8 22-354 T179M): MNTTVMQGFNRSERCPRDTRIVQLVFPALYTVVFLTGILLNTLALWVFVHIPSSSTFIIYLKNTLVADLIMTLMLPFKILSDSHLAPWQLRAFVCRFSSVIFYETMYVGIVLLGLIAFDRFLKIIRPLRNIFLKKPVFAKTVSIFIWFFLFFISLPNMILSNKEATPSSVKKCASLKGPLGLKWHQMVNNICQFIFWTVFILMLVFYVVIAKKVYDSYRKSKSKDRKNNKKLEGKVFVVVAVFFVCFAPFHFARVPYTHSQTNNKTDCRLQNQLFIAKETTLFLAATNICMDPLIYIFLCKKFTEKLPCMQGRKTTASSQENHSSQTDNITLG
Protocol: Secondary messenger assays, amenable to high throughput screening analysis, are performed including but not limited to the measurement of intracellular levels of cAMP, intracellular inositol phosphate, intracellular diacylglycerol concentrations, arachinoid acid concentration or MAP kinase or tyrosine kinase activity (as decribed above). For example, the GPR86 activity, as measured in a cyclic AMP assay, is quantified by a radioimmunoassay as previously described (26). Results are compared to the baseline level of GPR86 activity obtained from recombinant cells according to the invention in the presence of ADP but in the absence of added modulator compound. Wells showing at least 2 fold, preferably 5 fold, more preferably 10 fold and most preferably a 100 fold or more increase or decrease in GPR86 activity as compared to the level of activity in the absence of modulator, are selected for further analysis.
The potential effect of nucleotides was tested on the cAMP pathway in CHO-K1 cells expressing the human GPR86 receptor. […] CHO-K1 transfected cells were incubated in the presence of various concentrations of ADP and 4 μM forskolin for 10 min. The data represent the mean±S.D. of triplicate experimental points obtained in one representative experiment of three and 2MeSADP in the presence of forskolin 4 μM. […] CHO-K1 transfected cells were incubated in the presence of various concentrations of ADP an 4 μM forskolin for 10 minutes. The data represent the mean+/−S.D. of triplicate experimental points obtained in one representative experiment of three. CHO-K1 transfected cells were pre-incubated with or without 100 ng/ml pertussis toxin for 18 h and then incubated in the presence of ADP (100 nM and 100 μM) or water (CONT) and 4 μM forskolin for 10 min. The data represent the mean±S.D. of triplicate experimental points obtained in one representative experiment of two. The biphasic effect of ADP on adenylyl cyclase has been reproduced in 1321N1 cells transfected with the human GPR86 receptor.

In the case of `CSc1nc(N)c2ncn([C@@H]3O[C@H](COP(=O)(O)OP(=O)(O)O)[C@@H](O)[C@H]3O)c2n1` [2MeSADP, 2-methylthio-ADP], the “Erk1 or Erk2 phosphorylation” value (CHO-K1 control cells) is reported as “not observed” and the “effect on cAMP level at low concentrations” value [1] is reported as “Significant inhibitions of the cAMP level”.
In the case of `Nc1ncnc2c1ncn2[C@@H]1O[C@H](COP(=O)(O)OP(=O)(O)O)[C@@H](O)[C@H]1O` [ADP], the “Erk1 or Erk2 phosphorylation” value (CHO-K1 control cells) is reported as “not observed”, the “effect on adenylyl cyclase / cAMP at high concentration” value ([1]; 10 μM) is reported as “small increase” and the “effect on cAMP level after pertussis toxin pretreatment” value ([1]; ADP 100 nM and 100 μM, 18 h pretreatment with 100 ng/ml pertussis toxin) is reported as “significant increases of the cAMP level”. The “maximal inhibition percentage of cAMP” value ([1]; at 30 nM) was 52±7%, the “effect on cAMP level at low concentrations” value [1] was “Significant inhibitions of the cAMP level” and the IC50 ([1]; 10 min, mean±S.D. of three independent experiments, read-out: IC50, inhibition of cAMP level) was 1.5 ± 0.6 nM.
